In PMC6278284, “Synthesis of Jacaranone-Derived Nitrogenous Cyclohexadienones and Their Antiproliferative and Antiprotozoal Activities” (Molecules, 2018):
Where “and” joins values, the source holds several entries; their conditions need not be identical. Equal values may be shown once.

Tests used:
CCRF-CEM leukemia cells = experiment: XTT viability assay, CCRF-CEM; assay type: cell-based; settings: Homo sapiens, 72 h, read-out: metabolic active cells in % of control
Protocol: (§1) Human CCRF-CEM leukemia and MDA-MB-231 breast cancer cells lines were kept in RPMI1640 medium (Gibco®, ThermoFisher Scientific Inc., New York, NY, USA), supplemented with 2 mM L-glutamine (Gibco®), 10% heat-inactivated foetal bovine serum (FBS, Gibco®), 100 units/mL Penicillin (PAA), and 100 µg/mL Streptomycin (Gibco®) (1% Pen/Strep). HCT-116 and U251 cells were cultured in high-glucose Dulbecco’s Modified Eagle Medium (DMEM, Gibco®) containing 2 mM L-glutamine, 10% FBS, and 1% Pen/Strep. MRC-5 cells were grown in Minimum Essential Medium (MEM, Gibco®) supplemented with 2 mM L-glutamine, 10% FBS, and 1% Pen/Strep. All cells were kept in a humidified 5% CO2 atmosphere at 37 °C and passaged at 90% confluence.
(§2) A Cell Proliferation Kit II (XTT) was purchased from Sigma-Aldrich and performed as described previously and in accordance with the manufacturer’s protocol. In brief, adherent cell lines were seeded at a density of 50,000 cells/mL or 100,000 cells/mL (MRC-5) in 96 well plates (100 µL, flat bottom) and grown for 24 h before test compounds were added. Suspension cells (CCRF-CEM) were seeded at 100,000 cells/mL and test compounds were added immediately. After 72 h, XTT solution was added for another 90 min or 4 h (CCRF-CEM cells) and absorbance was measured at 490 nm with a reference wave length of 650 nm (Hidex Sense Microplate Reader 425-301, Hidex, Turku, Finland). Results are expressed as a percentage of the vehicle-treated (0.5% DMSO) control cells. Vinblastine served as the positive control (0.01 µg/mL).

[1] = system: L6 cells rat skeletal myoblasts; experiment: Cytotoxicity against L6 cells (Alamar Blue); assay type: cell-based; settings: L6 rat skeletal myoblasts, 72 h; read-out: Cyt. L6 IC50
Protocol: Assays were performed in 96-well microtiter plates, each well containing 100 μL of RPMI 1640 medium supplemented with 1% L-glutamine (200 mM) and 10% foetal bovine serum, and 4000 L6 cells (a […] cell line derived from rat skeletal myoblasts). Serial drug dilutions of 11 threefold dilution steps covering a range from 100 to 0.002 μg/mL were prepared. After 72 h of incubation, the plates were inspected under an inverted microscope to assure growth of the controls and sterile conditions. 10 μL of Alamar Blue solution was then added to each well and the plates incubated for another 2 h. Then, the plates were read with a Spectramax Gemini XS microplate fluorometer (Molecular Devices Cooperation, Sunnyvale, CA, USA) using an excitation wavelength of 536 nm and an emission wavelength of 588 nm. The IC50 values were calculated by linear regression from the sigmoidal dose inhibition curves using the microplate reader software, Softmax Pro (Molecular Devices Cooperation, Sunnyvale, CA, USA). Podophyllotoxin (Sigma P4405) was used as the control.

[2] = system: P. falciparum, strain NF54, erythrocytic stages; experiment: In vitro growth inhibition assay of Plasmodium falciparum NF54 ([3H]-hypoxanthine incorporation); assay type: cell-based; settings: for IC50: Plasmodium falciparum, strain NF54, erythrocytic stages, read-out: P. falc. IC50; for SI (IC50 in L6 cells/IC50 P. falciparum): ratio IC50 L6 / IC50 P. falciparum NF54
Protocol: In vitro activity against erythrocytic stages of P. falciparum was determined by a modified [^3H]-hypoxanthine incorporation assay using the drug-sensitive NF54 strain and the standard drug, chloroquine (Sigma C6628). Briefly, parasite cultures incubated in RPMI 1640 medium with 5% AlbuMAX^TM (without hypoxanthine) were exposed to serial drug dilutions in microtiter plates. After 48 h of incubation at 37 °C in a reduced oxygen atmosphere, 0.5 μCi [^3H]-hypoxanthine was added to each well of the plate. Cultures were incubated for a further 24 h before they were harvested onto glass-fiber filters and washed with distilled water. The radioactivity was counted using a Betaplate^TM liquid scintillation counter (Wallac, Zurich). The results were recorded as counts per minute (CPM) per well at each drug concentration and expressed as a percentage of the untreated controls. IC50 values were calculated from the sigmoidal inhibition curves using Microsoft Excel.

[3] = system: MRC-5 non-tumorigenic lung fibroblasts; experiment: XTT viability assay, MRC-5; assay type: cell-based, human; settings: 72 h; for viability at 5 µg/mL / viability at 50 µg/mL: Homo sapiens, MRC5, read-out: metabolic active cells in % of control; for viability at 5 µg/mL: MRC-5, 5 µg/mL; for viability at 50 µg/mL: MRC-5, 50 µg/mL; for cytotoxicity against human MRC-5 cells (in words): 5 µg/mL
Protocol: as §1, §2

[4] = system: MDA-MB-231 breast cancer cells; experiment: XTT viability assay, MDA-MB-231; assay type: cell-based; settings: Homo sapiens, 72 h, read-out: metabolic active cells in % of control; for viability at 5 µg/mL: MDA-MB-231, 5 µg/mL; for viability at 50 µg/mL: MDA-MB-231, 50 µg/mL
Protocol: as §1, §2

[5] = system: human (cancer) cell lines (CCRF-CEM, MDA-MB-231, HCT-116, U251, MRC-5); experiment: XTT viability assay, statements on the whole panel of cell lines; assay type: cell-based; settings: 72 h; for metabolic activity, % of the control: in all (13i) or almost all (13b) cell lines; for overall cytotoxicity (in words): 50 µg/mL, panel of cell lines
Protocol: All synthesized dienones (13a–j, 14a, 14c, and 15) were evaluated for their cytotoxic activity against human (cancer) cell lines. To cover a range of different tumor entities, we used a panel of cancer cell lines (CCRF-CEM leukemia, MDA-MB-231 breast cancer, HCT-116 colon cancer, and U251 glioblastoma cells) as well as a non-tumorigenic human cell line (MRC-5 lung fibroblasts). All derivatives were screened for their cytotoxicity at 5 µg/mL and 50 µg/mL to cover a broad concentration range. Cells were exposed to the derivatives for 72 h. […] No clear correlation between cytotoxic and antiprotozoal effects could be drawn. […] Human CCRF-CEM leukemia and MDA-MB-231 breast cancer cells lines were kept in RPMI1640 medium (Gibco®, ThermoFisher Scientific Inc., New York, NY, USA), supplemented with 2 mM L-glutamine (Gibco®), 10% heat-inactivated foetal bovine serum (FBS, Gibco®), 100 units/mL Penicillin (PAA), and 100 µg/mL Streptomycin (Gibco®) (1% Pen/Strep). HCT-116 and U251 cells were cultured in high-glucose Dulbecco’s Modified Eagle Medium (DMEM, Gibco®) containing 2 mM L-glutamine, 10% FBS, and 1% Pen/Strep. MRC-5 cells were grown in Minimum Essential Medium (MEM, Gibco®) supplemented with 2 mM L-glutamine, 10% FBS, and 1% Pen/Strep. All cells were kept in a humidified 5% CO2 atmosphere at 37 °C and passaged at 90% confluence. A Cell Proliferation Kit II (XTT) was purchased from Sigma-Aldrich and performed as described previously and in accordance with the manufacturer’s protocol. In brief, adherent cell lines were seeded at a density of 50,000 cells/mL or 100,000 cells/mL (MRC-5) in 96 well plates (100 µL, flat bottom) and grown for 24 h before test compounds were added. Suspension cells (CCRF-CEM) were seeded at 100,000 cells/mL and test compounds were added immediately. After 72 h, XTT solution was added for another 90 min or 4 h (CCRF-CEM cells) and absorbance was measured at 490 nm with a reference wave length of 650 nm (Hidex Sense Microplate Reader 425-301, Hidex, Turku, Finland). Results are expressed as a percentage of the vehicle-treated (0.5% DMSO) control cells. Vinblastine served as the positive control (0.01 µg/mL).

Row | IC50 [2] | melting point | SMILES | viability at 5 µg/mL (CCRF-CEM leukemia cells) | viability at 50 µg/mL (CCRF-CEM leukemia cells) | IC50 [1] | SI (IC50 in L6 cells/IC50 P. falciparum) [2] | viability at 5 µg/mL [3] | viability at 50 µg/mL [3] | viability at 5 µg/mL [4] | viability at 50 µg/mL [4] | metabolic activity, % of the control ([5]; 5 µg/mL) | cytotoxicity against human MRC-5 cells (in words) [3] | overall cytotoxicity (in words) [5] | cytotoxicity against most cell lines (in words) ([5]; 5 µg/mL)
1 | 4.42 µM | 151 to 152 °C | O=C1C=CC(O)(CCN2C(=O)C=CC2=O)C=C1 [Compound 13b, N-[2-(1-Hydroxy-4-oxocyclohexa-2,5-dien-1-yl)ethyl]maleimide] | -1.08% | 3.46% | 26.8 µM | 6.1 | 14.6% | 0.62% | 1.71% | 6.61% | below 40 % of the control |  |  | 
2 | 28 µM | 167 to 168 °C | O=C1C=CC(O)(CCN2C(=O)c3cccnc3C2=O)C=C1 [Compound 13f, N-[2-(1-Hydroxy-4-oxocyclohexa-2,5-dien-1-yl)ethyl]pyridine-2,3-dicarboximide] | 99.8% | 21.7% | 153 µM | 5.5 | 109% | 112% | 112% | 23% |  | did not show any cytotoxicity | negligible | 
3 | 11.8 µM | 142 to 143 °C | O=C1C=CC(O)(CCN2C(=O)COCC2=O)C=C1 [Compound 13g, N-[2-(1-Hydroxy-4-oxocyclohexa-2,5-dien-1-yl)ethyl]morpholine-3,5-dione] | 86.9% | 8.05% | 77.5 µM | 6.6 | 116% | 89.6% | 104% | 7.63% |  | did not show any cytotoxicity | negligible | 
4 | 1.28 µM |  | O=C1C=CC(O)(CCN2C(=O)C3=C(CCCC3)C2=O)C=C1 [Compound 13i, N-[2-(1-Hydroxy-4-oxocyclohexa-2,5-dien-1-yl)ethyl]-3,4,5,6-tetrahydrophthalimide] | 2.26% | 1.23% | 3.52 µM |  | 5.69% | 0.51% | 32.4% | 16.6% | below 40 % of the control |  |  | 
5 | 3.93 µM | 145 to 146 °C | O=C1C=CC(O)(CCN2C(=O)C3CC=CCC3C2=O)C=C1 (stereo not shown) [Compound 13j, N-[2-(1-Hydroxy-4-oxocyclohexa-2,5-dien-1-yl)ethyl]-1,2,3,6-tetrahydrophthalimide] | 89.9% | 15.4% | 8.04 µM | 2.0 | 96.1% | 50.3% | 87.7% | 89% |  | did not show any cytotoxicity | negligible | 
6 | 2.91 µM | 103 to 104 °C and 103 °C | O=C1C=CC(O)(CCN2Cc3ccccc3C2)C=C1 [Compound 14a, N-[2-(1-Hydroxy-4-oxocyclohexa-2,5-dien-1-yl)ethyl]isoindoline] | 94.6% | 58% | 2.81 µM | 1.0 | 119% | 95.1% | 95% | 92.5% |  | did not show any cytotoxicity | negligible | 
7 | 10.9 µM | 98 to 99 °C | O=C1C=CC(O)(CCN2CCOCC2)C=C1 [Compound 14c, N-[2-(1-Hydroxy-4-oxocyclohexa-2,5-dien-1-yl)ethyl]morpholine] | 22.8% | -0.18% | 3.46 µM | 0.3 | 141% | 0.79% | 56.8% | 4.33% |  |  |  | only minor cytotoxicity
